Consider one substance from article PMC11187126, “Structure and dynamics of the pyroglutamylated RF-amide peptide QRFP receptor GPR103” (Nature Communications, 2024).

Read-outs that look alike come from different tables or passages of the source. No end group written: not given here.

The target in this experiment is T1, GPR103 F25N-termA (Homo sapiens, UniProt Q96P65, F25A).
T1 construct: we used human full-length QRFPR-encoding plasmids; expressed in transfected cells; host or cells: HEK293 cells, pCAGGS vector
T1 sequence (Q96P65 1-431 F25A): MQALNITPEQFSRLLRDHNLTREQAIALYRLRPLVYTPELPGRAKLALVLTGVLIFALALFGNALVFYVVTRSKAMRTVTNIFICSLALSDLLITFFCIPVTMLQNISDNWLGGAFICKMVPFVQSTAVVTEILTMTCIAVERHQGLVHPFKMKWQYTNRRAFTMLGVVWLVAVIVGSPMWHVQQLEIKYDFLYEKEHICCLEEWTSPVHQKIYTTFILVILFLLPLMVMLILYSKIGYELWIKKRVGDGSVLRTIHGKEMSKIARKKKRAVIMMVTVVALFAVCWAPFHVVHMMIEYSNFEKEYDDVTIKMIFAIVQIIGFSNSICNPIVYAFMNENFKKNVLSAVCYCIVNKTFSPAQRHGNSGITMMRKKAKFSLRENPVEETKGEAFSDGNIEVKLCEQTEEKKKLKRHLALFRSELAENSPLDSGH
Nature of the experiment: TGFα shedding assay; Exp. level >WT (1:1). The class given is cell-based. On the procedure: For the TGFα shedding assay and the flow cytometry analysis, we used human full-length QRFPR-encoding plasmids. Specifically, GPR103 was N-terminally modified with an HA signal sequence followed by a FLAG epitope and then a flexible linker ([…]; the FLAG epitope is underlined) and inserted into the pCAGGS vector. Plasmid encoding GPR103 mutants were generated using Quickchange Site-Directed Mutagensis kit (Agilent).
The TGFα shedding assay was performed as described previously with minor modifications. Plasmid transfection was performed in a 6-well plate with a mixture of 500 ng (per well in a 6-well plate) AP-TGFα-encoding plasmid and 200 ng GPR103-encoding plasmid. After 1-day culture, the transfected cells were harvested by trypsinization, pelleted by centrifugation at 190 × g for 5 min, and washed once with 5 mM HEPES (pH 7.4)-containing Hank’s Balanced Salt Solution (HBSS). After centrifugation, the cells were resuspended in 8 mL of the HEPES-containing HBSS. The cell suspension was seeded in a 96-well culture plate (cell plate) at a volume of 90 μL (per well hereafter) and incubated in a 37 °C incubator with 5% CO2 for 30 min. […] After spinning the cell plates at 190 × g for 2 min, 80 μL of conditioned media was transferred to an empty 96-well plate (conditioned media (CM) plate). Then, 80 μL of AP reaction solution (10 mM p-nitrophenylphosphate (p-NPP), 120 mM Tris-HCl (pH 9.5), 40 mM NaCl, and 10 mM MgCl2) was dispensed into the cell plates and the CM plates. Absorbance at 405 nm of the plates was measured using a microplate reader (SpectraMax 340 PC384, Molecular Devices) before and after 1-h incubation at room temperature. Ligand-induced AP-TGFα release was calculated by subtracting spontaneous AP-TGFα release signal from ligand-induced AP-TGFα release signal. The AP-TGFα release signals were fitted to a four-parameter sigmoidal concentration–response curve, using the Prism 10 software (GraphPad Prism). For each replicate experiment, the pEC50 parameter (negative logarithmic values of EC50 values) of the individual GPR103 mutants were normalized to that of the wild-type GPR103 performed in parallel, and resulting ∆pEC50 values were used to denote ligand response activity of the mutants. […]
Exp. le vel: WT (1:5 0)Exp. le vel: WT (1:5 0)Exp. le vel: WT (1:5 0)Exp. le vel: WT (1:2 0)Exp. le vel: WT (1:2 0)Exp. le vel: WT (1:1 0) […]
L1 4N - t e r mA F2 5N - t e r mA I 2 6N - t e r mA Y 2 9N - t e r mA C 9 82 .5 7A T10 22 .6 1A Exp . l eve l: WT (1 :5)Exp . l evel : >WT (1 :1)Exp. le vel: WT (1:2 0)Exp. le vel: WT (1:2 0)Exp. le vel: WT (1:5 0)Exp . l eve l: WT (1 :1) […]
Exp. le vel: WT (1:1 0)Exp. le vel: WT (1:2 0) C 1 1 83 .2 5AExp. le vel: WT (1:5 0)Exp. le vel: WT (1:5 0)Exp. le vel: WT (1:2 0)Exp . l eve l: WT (1 :5) […]
Exp. le vel: WT (1:5 0)Exp. le vel: WT (1:1 0)Exp. le vel: WT (1:5 0) E203ECL2AExp . l evel : >WT (1 :1)Exp. le vel: WT (1:5 0)Exp. le vel: WT (1:5 0) […]
Exp . l eve l: WT (1 :1) F28Exp. le vel: WT (1:5 0) C 2 8 56 .4 7AExp. le vel: WT (1:2 0) WExp. le vel: WT (1:2 0) F28Exp. le vel: WT (1:5 0)Exp . l evel : >WT (1 :1) […]
Exp. le vel: WT (1:5 0)Exp. le vel: WT (1:5 0) C 3 2 77 .4 8AExp . l eve l: WT (1 :5)Exp . l evel : >WT (1 :1)Exp . l evel : >WT (1 :1) […]
Suppl eme nt ary Figure 1 | Mutational analysis of GPR103. […]
mutants. Data are presented as mean values ± SEM, normally n=3-5; dots), each performed in triplicate. b-d Cell-surface expression (b) and QRFP26-in-duced activation of GPR103 (c, d) were analyzed by the flow cytometry and the TGFα shedding assay, respectively. From the concentration–response curves (a), Emax (c) and ΔpEC50 (d) values relative to the wild type were calculated. Colors in the mutant bars indicate an expression level matching to that of titrated wild type. Statistical analyses were performed using the ordinary one-way ANOVA followed by Dunnett tests with the expression-matched […]

One may read the EC50 as the concentration needed to bring the measured effect to its halfway point. Regarding TSGPLGNLAEELNGYSRKKGGFSFRF-NH2 [QRFP26], the Emax by setting is: (Exp. #1) 108.31 % WT; (Exp. #2) 103.77 % WT; (Exp. #3) 108.41 % WT; (mean, read-out: Emax) 107%; (n = 3, read-out: Emax) 110 ± 1.2%. The substance also had an EC50 (n = 3) of 79.4 nM.
